In patent US10653647B2 (priority 2003, dated 2020):

System: terminal sensory nerve fibers of rat vulva
Test: reduction of nerve fiber density in rat vulva, PGP 9.5 immunostaining
Assay type: in vivo
Conditions: 33 μL, 1% (w/v) in DGME applied for 20 minutes, Day 7, statistical significance not established
Method: Sixty female retired breeder Sprague-Dawley rats were divided into 6 groups. On day 0, rats were anesthetized with isoflurane anesthetic gas and then LMX5® anesthetic cream was applied to the entire vulvar area of each rat at least 30 minutes. The test formulations were applied using a micropipette to dispense 33 μL of each formulation. The formulations applied were diethylene glycol monoethyl ether (DGME) alone; 0.01% capsaicin (w/v) in DGME; 0.1% capsaicin (w/v) in DGME; 1% resiniferatoxin (w/v) in DGME; 3% capsaicin (w/v) in 90% (v/v) DGME and 10% (v/v) DMSO, a 10% capsaicin (w/v) in DGME. The formulations were left on for 20 minutes with the exception of 10% capsaicin (w/v) in DGME which was left on for 5 minutes. The remaining formulation was removed using a cleansing gel (89.08% PEG 300, 1.0% Carbopol 1382™, 0.02% butylated hydroxyanisole, 0.01% disodium edentate, pH 6.5). […] The tissues were evaluated by a board certified veterinary pathologist for (1) any and all lesions, with particular attention to inflammation and any microvascular changes, and (2) the presence, absence and any abnormalities in the architecture of the terminal nerve sensory nerve fibers. For each specimen, nerve fiber functionality was determined by counting the number of nerve fibers observed in at least four microscopical fields (each circular microscopical field has a radius of 90 μm) and then averaged. […]

C=C(C)[C@]12C[C@@H](C)[C@@]34O[C@](Cc5ccccc5)(O[C@@H]1[C@@H]3C=C(COC(=O)Cc1ccc(O)c(OC)c1)C[C@]1(O)C(=O)C(C)=C[C@@H]41)O2 [resiniferatoxin]
decrease in nerve fiber density: 28%
